According to patent publication US11213522B2, “Autoimmune-induced glutamatergic receptor dysfunction methods and treatments” (SARAH HERZOG MEMORIAL HOSPITAL EZRAT NASHIM ASSOCIATION, priority 2013, dated 2022):

Columns and labels:
Format in all cases: in vivo, human
[1] = system: patient positive for anti-NR1 NMDAR antibodies; test: Tower of London (ToL); conditions: post-6 weeks D-serine
Experimental: (§1) The trial consisted of two periods, starting with a 2 week lead-in/stabilization period (−2-0) following which the patient was entered in the second period of the study which consisted of a 6 week (0-6), open-label, fixed dose therapy phase. During this phase, the patient received adjuvant treatment with DSR, whose dose was increased from 1500 mg/day (week 1) to 2000 mg/day (weeks 2 and 3) to 3000 mg/day (weeks 4 and 5) and to 4000 mg/day (week 6). The doses of the ongoing medication received by the patient remained fixed throughout the study and no changes in medication were performed.
In addition, cognitive performance was assessed pre- and post DSR treatment. For this purpose, a 1.5-hour neurocognitive assessment battery (nine computerized and two paper/pencil tests) was employed that measures accuracy and speed of performance in major cognition domains, including attention/vigilance, planning, short-term and working memory, decision making, abstraction and mental flexibility. All the tests were formatted like games and puzzles, and were administered to the patient as part of the comprehensive neuropsychiatric assessment at baseline and the end of study. The neurocognitive battery included the 1) Test of Attentional Vigilance (TOAV, (Forbes, 1998, Journal of Clinical Psychology 54:461-476; Greenberg, 1993, Journal of Child Psychology and Psychiatry 34: 1019-30)); 2) Tower of London (TOL, (Shailice, 1982, Specific impairments of planning Philosophical Transactions of the Royal Society of London. Series B, Biological Sciences 298:199-209); 3-4) Digit Span Test (DST, forward and backward (Wechsler 1997, The Wechsler adult intelligence scale-III. San Antonio, Tex.: Psychological Corporation; Kaplan 1991, The WAIS-R as a neuropsychological instrument. San Antonio, Tex.: The Psychological Corporation; Lamar et al., 2007, Neuropsychologia 45:245-54; Lamar et al., 2008, Neuropsychologia 46:2597-601)); 5-6) Corsi Block Tapping Test (CBTT, forward and backward, (Corsi, 1972, Dissertation Abstracts International. 34:819B; Kessels et al., 2000, Applied Neuropsychology 7:252-58, Kessels et al., 2008, Assessment 15:426-34)); 7) Flanker Task (Erikson and Eriksen, 1974; Perception & Psychophysics 25: 249-63, Stins et. al., 2007, Advances in Cognitive Psychology 3:389-96); 8) Time Wall (Perez et al., 1987, Unified Tri-services cognitive performance assessment battery: review and methodology; DTIC Document ADA181697, http://www.dtic.mil/dtic/tr/fulltext/u2/a81697.pdf); and Wisconsin Card Sort Test (WCST, (Berg, 1948, J Gen Psychol39:15-22; Nelson, 1976, Cortex 12:313-24)). […]

[2] = system: patient positive for anti-NR1 NMDAR antibodies; test: Time Wall; conditions: post-6 weeks D-serine
Experimental: as §1
In addition, cognitive performance was assessed pre- and post DSR treatment. For this purpose, a 1.5-hour neurocognitive assessment battery (nine computerized and two paper/pencil tests) was employed that measures accuracy and speed of performance in major cognition domains, including attention/vigilance, planning, short-term and working memory, decision making, abstraction and mental flexibility. All the tests were formatted like games and puzzles, and were administered to the patient as part of the comprehensive neuropsychiatric assessment at baseline and the end of study. […]

[3] = system: patient positive for anti-NR1 NMDAR antibodies; test: Electroencephalogram (EEG) pre- and post-DSR administration
Experimental: as §1
The patient underwent prior to entering the study and at study weeks 3 and 6 a medical work-up including complete medical history, and routine clinical blood work, including blood count+differential, lipids, and glucose levels, kidney, thyroid, and liver function parameters, urinalysis, and blood pressure measurements. Abdominal ultrasound was performed prior to study entry and electroencephalogram (EEG) and brain magnetic resonance imaging (MR1) were obtained pre- and post-DSR administration.

N[C@H](CO)C(=O)O [D-serine]
ToL correctly solved trials, total (0-12) ([1]; pre-treatment 6): 4 | ToL preplanning time, mean ± SD ([1]; pre-treatment 15.48 ± 4.43): 11.24 ± 4.73 s | ToL movement execution time, mean ± SD ([1]; pre-treatment 22.57 ± 11.998): 19.30 ± 15.42 s | ToL total time (0-720 seconds) ([1]; pre-treatment 456.582): 366.415 s | Time Wall accuracy score, mean ± SD ([2]; pre-treatment 0.056 ± 0.053): 0.077 ± 0.051 | Time Wall correctly estimated trials, total (0-20) ([2]; pre-treatment 12): 6 | Current latency of EDB over the right frontal area ([3]; following DSR treatment, t=2.686, df=113, p=0.0083, F8 channel): significant reduction | EEG extreme delta brush (EDB) pattern ([3]; post- vs pre-DSR administration (six weeks)): attenuation of the EDB pattern | EEG coherence between electrodes ([3]; post- vs pre-six weeks of D-serine, across all frequency bands): Distinct new patterns of EEG coherence
